The values below come from US20260092086A1, “ANTIMICROBIAL LASSO PEPTIDES” (priority 2022, published 2026).

“Also recorded” adds a separate entry of the source. Where a SMILES comes first, the peptide text is derived from it.

For series [1], the system named is carboxypeptidase B and carboxypeptidase Y. Nature of the series: Carboxypeptidase digestion. The format is in vitro ADME. As for the experimental part:
Carboxypeptidase assays were done in 50 μL of 50 mM sodium acetate, pH 6.0 with 1 unit each of carboxypeptidase B and carboxypeptidase Y. Reactions were incubated overnight at 20° C. for 16 hours and then quenched with 1% formic acid. An aliquot of the reaction was then injected onto LC-MS to compare with an untreated control.

Series [2] deals with Enterobacter cloacae UCI102. The note with it: strain UCI102; cited from earlier work.
The test system of series [3] is Enterobacter hormaechei UCI35. The following applies: strain UCI35; cited from earlier work.
Series [4] has as its system Enterobacter cloacae BIDMC120. The following applies: strain BIDMC120; cited from earlier work.
Series [5] concerns Enterobacter roggenkampii MGH239. The following applies: strain MGH239; cited from earlier work.
Series [6] concerns Enterobacter hormaechei BIDMC87. The note with it: strain BIDMC87; cited from earlier work.
For series [7], the system named is Enterobacter cloacae MGH3. The note with it: strain MGH3; cited from earlier work.
In series [8] the test system is Enterobacter kobei MGH178. The following applies: strain MGH178; cited from earlier work.
Series [9] relates to Enterobacter ludwigii MGH216. The following applies: strain MGH216; cited from earlier work.
The subject of series [10] is Enterobacter asburiae UCI193. The note with it: strain UCI193; cited from earlier work.
Series [11] has as its system Enterobacter asburiae MGH243. The note with it: strain MGH243; cited from earlier work.
Series [12] relates to Enterobacter hormaechei BWH39. The note with it: strain BWH39; cited from earlier work.
For series [13], the target named is T1, Thermolysin (Geobacillus stearothermophilus, UniProt P43133).
T1 construct: purchased Sigma-Aldrich
T1 sequence (P43133 236-551): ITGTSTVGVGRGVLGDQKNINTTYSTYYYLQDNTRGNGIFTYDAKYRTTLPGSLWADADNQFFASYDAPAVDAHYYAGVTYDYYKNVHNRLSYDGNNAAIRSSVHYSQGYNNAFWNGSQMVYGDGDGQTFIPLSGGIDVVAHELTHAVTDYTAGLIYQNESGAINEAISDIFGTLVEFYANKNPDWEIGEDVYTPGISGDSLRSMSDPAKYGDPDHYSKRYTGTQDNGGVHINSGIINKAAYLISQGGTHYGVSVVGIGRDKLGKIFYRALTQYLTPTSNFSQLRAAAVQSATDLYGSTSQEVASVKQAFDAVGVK
Nature of the series: Protease digestion, thermolysin. The format is in vitro ADME. The following applies: 50 μM peptide, 30° C., about 1 hour, LC-MS. As for the experimental part: Thermolysin from Geobacillus stearothermophilus (Sigma-Aldrich) was first resuspended in 50 mM Tris, 0.5 mM CaCl2). The enzyme was then added to 50 μM peptide samples at a final concentration of about 0.04 mg/mL in a buffer of 50 mM Tris, 0.5 mM CaCl2), pH 8. The reactions were then allowed to incubate at 30° C. for about 1 hour before quenching with 1% formic acid. An aliquot was then injected onto LC-MS for analysis.

Series [14] can be described thus: Stability of variants: threaded-to-unthreaded peptide in supernatant extract by LC-MS. The format is physicochemical. The note with it: for Stability Relative to WT: ratio of threaded-to-unthreaded peptide in supernatant extract after purification; for threaded versus unthreaded peptide in supernatant extract (stability against unthreading): heating and carboxypeptidase assays, compared with wild-type.

Series [15] relates to Enterobacter amnigenus ATCC 33072. The format is cell-based. The following applies: against Enterobacter amnigenus (FIG. 28, peptides at 10 μM; Y10A FIG. 34). How it is done: Cloacaenodin was evaluated against several common laboratory strains as well as commercially acquired strains using a spot-on-lawn assay.^45 Strains were streaked out onto LB agar plates and incubated overnight at their recommended temperatures. A single colony was then used to inoculate an overnight culture in 5 mL of LB broth. After shaking at 250 rpm at the recommended temperature for each strain, 50 μL of the overnight culture was used to inoculate 5 mL of LB broth (volume ratio 1:100). These cultures were grown for a few hours until they reached the exponential phase (OD600˜0.4-0.6) before being added to 10 mL of soft M63 agar at a final cell density of 10^7 CFUs/mL, or 10^8 CFUs total in 10 mL. The M63 soft agar was composed of 2 g/L of (NH4)2SO4 (EMD MilliporeSigma), 13.6 g/L of KH2PO4 (Fisher), 40 mg/L of each of the 20 common amino acids, 0.2% glucose (Sigma), 0.00005% w/v thiamine hydrochloride (Sigma), and 0.65% w/v bacteriological-grade agar (Apex Bioresearch). […] Upon solidification, 10 μL of purified cloacaenodin in water at two-fold dilutions were then spotted onto the agar and allowed to dry. The plates were incubated overnight at the strains' recommended temperatures and analyzed the next morning for activity. The MIC is defined as the last dilution where a spot was visible.

The subject of series [16] is Escherichia coli XL-1 Blue. Nature of the series: Intracellular toxicity: IPTG-induced expression from plasmid lacking cloD. Format: cell-based. The following applies: IPTG induction. How it is done: After characterizing the structure and proteolytic resistance of cloacaenodin, cloacaenodin's inhibition of bacterial growth was tested. As a preliminary test of antimicrobial activity, a version of the expression plasmid from which the cloD gene was removed was cloned, so that the lasso peptide could not be exported by the Escherichia coli upon isopropyl β-D-1-thiogalactopyranoside (IPTG)-induced expression.
Cloacaenodin variants were constructed using site-directed mutagenesis. Mutant precursor genes were amplified from the wild-type precursor in pAK2 using mutagenic primers. Following PCR amplification of the mutated precursor gene, the purified PCR product was digested and ligated into pAK2 with the EcoRI and HindIII restriction sites. For the pMP3 plasmid for deletion of the cloD gene, the D gene was first disrupted by digestion of pAK2 with BamHI and NcoI, which removed the entire cloD gene and the C-terminal portion of the cloC gene. The digested plasmid was then ligated with an insert that restored the C-terminal portion of the cloC gene. All mutants were sequence confirmed by Genewiz (now Azenta) before use.

`CC[C@H](C)[C@@H]1NC(=O)[C@H](CCCNC(=N)N)NC(=O)[C@H](CC(=O)O)NC(=O)[C@H](C(C)C)NC(=O)[C@H](CO)NC(=O)[C@H](Cc2c[nH]cn2)NC(=O)CNC(=O)CC[C@@H](C(=O)N[C@@H](Cc2ccc(O)cc2)C(=O)N[C@@H](Cc2ccccc2)C(=O)NCC(=O)N2CCC[C@H]2C(=O)N2CCC[C@H]2C(=O)NCC(=O)N[C@@H](CC(C)C)C(=O)N2CCC[C@H]2C(=O)NCC(=O)N2CCC[C@H]2C(=O)N[C@H](C(=O)N[C@@H](CC(C)C)C(=O)N[C@@H](Cc2ccccc2)C(=O)N[C@@H](Cc2ccc(O)cc2)C(=O)NCC(=O)O)C(C)C)NC(=O)[C@@H]2CCCN2C1=O` [Cloacaenodin S24G] (HELM PEPTIDE1{G.H.S.V.D.R.I.P.E.Y.F.G.P.P.G.L.P.G.P.V.L.F.Y.G}$PEPTIDE1,PEPTIDE1,1:R1-9:R3$$$V2.0; C-terminus assumed; bridges inferred): the proteolysis by carboxypeptidase entry in series [1] (pH 6) is recorded as “susceptibility to carboxypeptidase”.
For `C[C@@H](O)[C@H]1C(=O)N2C(C(=O)O)=C(S[C@@H]3CN[C@H](C(=O)N(C)C)C3)[C@H](C)[C@H]12` [Meropenem], the “Meropenem MIC” value in [2] was 0.063 µg/mL; in series [3] it was 4 µg/mL; in [4], 4 µg/mL; in series [5] it was 1 µg/mL; in series [6] it was 16 µg/mL; in [7] it was at least 16 µg/mL. The “Meropenem MIC” value in series [8] is at most 0.25 µg/mL; in [9], at most 0.25 µg/mL; in [10], 23 µg/mL; in series [11], 16 µg/mL; in [12] it was 2 µg/mL.
Turning to `CC[C@H](C)[C@@H]1NC(=O)[C@H](CCCNC(=N)N)NC(=O)[C@H](CC(=O)O)NC(=O)[C@H](C(C)C)NC(=O)[C@H](CO)NC(=O)[C@H](Cc2c[nH]cn2)NC(=O)CNC(=O)CC[C@@H](C(=O)N[C@@H](Cc2ccc(O)cc2)C(=O)N[C@@H](Cc2ccccc2)C(=O)NCC(=O)N2CCC[C@H]2C(=O)N2CCC[C@H]2C(=O)NCC(=O)N[C@@H](CC(C)C)C(=O)N2CCC[C@H]2C(=O)NCC(=O)N2CCC[C@H]2C(=O)N[C@H](C(=O)N[C@@H](CC(C)C)C(=O)N[C@@H](Cc2ccccc2)C(=O)N[C@@H](Cc2ccc(O)cc2)C(=O)N[C@@H](CO)C(=O)O)C(C)C)NC(=O)[C@@H]2CCCN2C1=O` [unthreaded cloacaenodin] (HELM PEPTIDE1{G.H.S.V.D.R.I.P.E.Y.F.G.P.P.G.L.P.G.P.V.L.F.Y.S}$PEPTIDE1,PEPTIDE1,1:R1-9:R3$$$V2.0; C-terminus assumed; bridges inferred), the proteolysis by thermolysin result in [13] was “cleavage of the unthreaded peptide both in its linear and ring segments; also recorded: can be cleaved by thermolysin”.
With “GHSVADRIPEYFGPPGLPGPVLFYS [Cloacaenodin 10-membered ring]”, the proteolysis by carboxypeptidase result in series [1] (carboxypeptidase B and Y, pH 6.0, 20° C., 16 hours, LC-MS) was “susceptible to degradation by carboxypeptidase”. The “Stability Relative to WT” value in series [14] is recorded as “Less”.
As for “GHSVDRIAEYFGPPGLPGPVLFYS [Cloacaenodin P8A, 109]”, in series [14], the “threaded versus unthreaded peptide in supernatant extract (stability against unthreading)” value was “a dramatic decrease in the ratio of threaded-to-unthreaded peptide in the extract for a cloacaenodin P8A variant (FIG. 32) was not observed” and the “Stability Relative to WT” value is recorded as “Comparable”.
On to “GHSVDRIPEAFGPPGLPGPVLFYS [Cloacaenodin Y10A, 118]”, for which the “Bioactivity Relative to WT” value in [15] was “Much less”. Further, the “intracellular toxicity (growth of E. coli on IPTG without CloD)” value in series [16] was “not toxic intracellularly”; in [16] (listed as Y10A) it was “cells could still grow”.
Turning to “GHSVDRIPEYFGPPGLPGPVLFYA [Cloacaenodin S24A, 113]”, in [15], the “Bioactivity Relative to WT” value is “Comparable”.
Same read-out and setting: the same measure for “GHSVDRIPEYFGPPGLPGPVLFYC [Cloacaenodin S24C, 117]”: “Less”; for “GHSVDRIPEYFGPPGLPGPVLFYT [Cloacaenodin S24T, 116]”: “Less”; for “GHSVDRIPEYFGPPGLPGPVLFYY [Cloacaenodin S24Y, 114]”: “Comparable”.
For “GHSVDRIPEYFGPPGLPGPVLWYS [Cloacaenodin F22W]”, the “Bioactivity Relative to WT” value in series [15] was “Comparable”. Moreover, in series [14], the “threaded versus unthreaded peptide in supernatant extract (stability against unthreading)” value is “comparable levels of unthreaded peptide” and the “Stability Relative to WT” value is recorded as “Comparable”.
